# Assay results reported in patent US8987256B2, “Oxo-heterocyclic substituted carboxylic acid derivatives and the use thereof” (Bayer Intellectual Property GmbH, priority 2008, dated 2015).
# Legend:
# [1] = molecular target: T1, recombinant guanylate cyclase reporter cell line (Rattus norvegicus, UniProt P20595); assay: sGC-activating activity in the CHO reporter cell in vitro; format: cell-based
# T1 construct: expressed in transfected cells; host or cells: CHO reporter cell line
# T1 sequence (P20595 1-619): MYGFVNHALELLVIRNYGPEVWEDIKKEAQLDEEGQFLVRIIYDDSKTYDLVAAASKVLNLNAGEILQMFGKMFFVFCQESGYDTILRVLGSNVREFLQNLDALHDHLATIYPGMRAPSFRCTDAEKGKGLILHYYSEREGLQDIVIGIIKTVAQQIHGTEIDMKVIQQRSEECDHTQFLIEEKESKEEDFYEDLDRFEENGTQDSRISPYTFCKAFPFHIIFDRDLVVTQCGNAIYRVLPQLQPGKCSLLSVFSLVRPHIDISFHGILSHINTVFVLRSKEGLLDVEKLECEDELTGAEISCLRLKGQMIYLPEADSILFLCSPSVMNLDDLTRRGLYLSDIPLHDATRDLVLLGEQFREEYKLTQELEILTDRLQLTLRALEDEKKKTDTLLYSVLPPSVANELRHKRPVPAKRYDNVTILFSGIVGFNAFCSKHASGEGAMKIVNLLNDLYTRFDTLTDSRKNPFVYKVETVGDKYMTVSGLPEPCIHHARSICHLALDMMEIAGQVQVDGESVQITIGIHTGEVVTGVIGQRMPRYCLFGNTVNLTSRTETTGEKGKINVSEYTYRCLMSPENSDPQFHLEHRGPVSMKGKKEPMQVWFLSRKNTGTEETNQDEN
# T1 sequence (P19686 1-690 partner): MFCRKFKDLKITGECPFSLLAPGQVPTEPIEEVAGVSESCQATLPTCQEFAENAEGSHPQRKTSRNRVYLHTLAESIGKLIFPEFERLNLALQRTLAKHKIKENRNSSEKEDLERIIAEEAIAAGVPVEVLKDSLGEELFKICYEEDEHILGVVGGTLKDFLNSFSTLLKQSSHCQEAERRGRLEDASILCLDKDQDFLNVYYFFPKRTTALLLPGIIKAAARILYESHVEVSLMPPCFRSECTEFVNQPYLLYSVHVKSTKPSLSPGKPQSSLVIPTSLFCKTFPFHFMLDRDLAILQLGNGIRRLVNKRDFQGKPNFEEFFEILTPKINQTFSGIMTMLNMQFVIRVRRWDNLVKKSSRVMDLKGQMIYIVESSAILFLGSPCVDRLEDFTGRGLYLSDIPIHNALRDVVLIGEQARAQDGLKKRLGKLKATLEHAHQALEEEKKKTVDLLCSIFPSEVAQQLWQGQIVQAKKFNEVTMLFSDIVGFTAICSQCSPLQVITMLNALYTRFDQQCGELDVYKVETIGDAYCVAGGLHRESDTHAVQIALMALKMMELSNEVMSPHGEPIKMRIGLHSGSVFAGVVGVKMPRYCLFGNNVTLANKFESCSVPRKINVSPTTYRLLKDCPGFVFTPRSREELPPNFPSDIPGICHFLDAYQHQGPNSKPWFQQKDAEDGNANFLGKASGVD
# Procedure: The cellular action of the compounds according to the invention is determined at a recombinant guanylate cyclase reporter cell line, as described in F. Wunder et al., Anal. Biochem. 339, 104-112 (2005).
# [2] = molecular target: T2, soluble guanylate cyclase (sGC) (Rattus norvegicus, UniProt P20595); assay: Activating action at the sGC enzyme in vitro (PPi detection, luciferase); format: biochemical; settings: for EC50: read-out: EC50 (concentration at 50% of maximum efficacy), activating action at the sGC enzyme
# T2 construct: made in house; host or cells: baculovirus/Sf9 insect cells
# T2 sequence (P20595 1-619): T1 sequence (P20595 1-619)
# T2 sequence (P19686 1-690 partner): T1 sequence (P19686 1-690 partner)
# Procedure: Soluble guanylate cyclase (sGC) converts on stimulation GTP into cGMP and pyrophosphate (PPi). PPi is detected with the aid of the assay described below. The signal produced in the assay increases as the reaction progresses and serves as a measure of the sGC enzyme activity under the given stimulation.
# To carry out the assay, 29 μl of enzyme solution [0-10 nM soluble guanylate cyclase (prepared according to Honicka et al., J. Mol. Med. 77, 14-23 (1999)) in 50 mM TEA, 2 mM MgCl2, 0.1% BSA (fraction V), 0.005% Brij®, pH 7.5] are initially introduced into a microplate, and 1 μl of the substance to be tested (as a serially diluted solution in DMSO) is added. The mixture is incubated at room temperature for 10 min. Then 20 μl of detection mix [1.2 nM Firefly Luciferase (Photinus pyralis luciferase, Promega), 29 μM dehydroluciferin (prepared according to Bitler & McElroy, Arch. Biochem. Biophys. 72, 358 (1957)), 122 μM luciferin (Promega), 153 μM ATP (Sigma) and 0.4 mM DTT (Sigma) in 50 mM TEA, 2 mM MgCl2, 0.1% BSA (fraction V), 0.005% Brij®, pH 7.5] are added. The enzyme reaction is started by adding 20 μl of substrate solution [1.25 mM guanosine 5′-triphosphate (Sigma) in 50 mM TEA, 2 mM MgCl2, 0.1% BSA (fraction V), 0.005% Brij®, pH 7.5] and measured continuously in a luminometer. The extent of the stimulation by the substance to be tested can be determined relative to the signal of the unstimulated reaction.
# The activation of heme-free guanylate cyclase is examined by addition of 25 μM of 1H-1,2,4-oxadiazolo[4,3-a]quinoxalin-1-one (ODQ) to the enzyme solution and subsequent incubation for 30 minutes and compared to the stimulation of the native enzyme.
Compound,"MEC (minimum effective concentration), sGC-activating activity in the CHO reporter cell [1] [nM]","MEC (minimum effective concentration), activating action at the sGC enzyme [2] [nM]",EC50 [2] [nM]
"O=C(O)c1ccc(CNC(=O)C(c2ccc(Cn3nc(-c4ccc(Cl)cc4)c4ccccc4c3=O)cc2)C2CCCC2)cc1 (racemic) [Example 1, 4-({[(4-{[4-(4-Chlorophenyl)-1-oxophthalazin-2(1H)-yl]methyl}phenyl)(cyclopentyl)acetyl]-amino}methyl)benzenecarboxylic acid]",10,–,–
"O=C(O)c1ccc(CNC(=O)C(c2ccc(Cn3nc(-c4ccc(Cl)cc4)c4ccccc4c3=O)cc2)C2CCCC2)nc1 (racemic) [Example 11, 6-({[(4-{[4-(4-chlorophenyl)-1-oxophthalazin-2(1H)-yl]-methyl}phenyl)(cyclopentyl)acetyl]amino}methyl)-pyridine-3-carboxylic acid]",300,–,–
"O=C(O)CCc1cccc(NC(=O)C(c2ccc(Cn3nnc4ccccc4c3=O)cc2)C2CCCC2)c1 (racemic) [Example 21, 3-{3-[(cyclopentyl{4-[(4-oxo-1,2,3-benzotriazin-3(4H)-yl)methyl]phenyl}acetyl)amino]phenyl}-propanoic acid]",30,–,–
O=C(O)CCc1cccc(NC(=O)C(c2ccc(Cn3nc(-c4ccccc4)oc3=O)cc2)C2CCCC2)c1 (racemic) [Example 22],300,–,–
"Cc1c(CCC(=O)O)cccc1NC(=O)C(c1ccc(CN2CCN(c3cccc(Cl)c3)C2=O)cc1)C1CCCC1 (racemic) [Example 26, 3-(3-{[(4-{[3-(3-chlorophenyl)-2-oxoimidazolidin-1-yl]methyl}phenyl)(cyclopentyl)acetyl]amino}-2-methylphenyl)propanoic acid]",300,–,–
"Cc1c(CCC(=O)O)cccc1NC(=O)C(c1ccc(Cn2nnc3ccccc3c2=O)cc1)C1CCCC1 (racemic) [Example 29, 3-{3-[(cyclopentyl{4-[(4-oxo-1,2,3-benzotriazin-3(4H)-yl)methyl]phenyl}acetyl)amino]-2-methyl-phenyl}propanoic acid]",30,–,–
"Cc1c(CCC(=O)O)cccc1NC(=O)C(c1ccc(Cn2nc(-c3ccccc3)oc2=O)cc1)C1CCCC1 (racemic) [Example 30, 3-{3-[(cyclopentyl{4-[(2-oxo-5-phenyl-1,3,4-oxadiazol-3(2H)-yl)methyl]phenyl}acetyl)amino]-2-methylphenyl}propanoic acid]",30,–,–
"CCC(C)C(C(=O)Nc1cccc(CCC(=O)O)c1)c1ccc(CN2N=C(c3ccccc3)OCC2=O)cc1 (single isomer, unassigned) [Example 62, 3-{3-[(3-Methyl-2-{4-[(5-oxo-2-phenyl-5,6-dihydro-4H-1,3,4-oxadiazin-4-yl)methyl]-phenyl}pentanoyl)amino]phenyl}propanoic acid]",3,–,–
"CC(C)C(C(=O)Nc1cccc(CCC(=O)O)c1)c1ccc(CN2N=C(c3ccccc3)OCC2=O)cc1 (single isomer, unassigned) [Example 105, 3-{3-[(3-mcthyl-2-{4-[(5-oxo-2-phcnyl-5,6-dihydro-4H-l,3,4-oxadiazin-4-yl)mcthyl]phenyl}butanoyl)-amino]phcnyl}propanoic acid]",10,–,–
"CC(C)C(C(=O)Nc1ccc(CCC(=O)O)cc1)c1ccc(CN2N=C(c3ccccc3)OCC2=O)cc1 (single isomer, unassigned) [Example 106, 3-{4-[(3-mcthyl-2-{4-[(5-oxo-2-phcny1-5,6-dihydro-4H-1,3,4-oxadiazin-4-yl)mcthyl]phenyl}butanoyl)-amino]phcnyl}propanoic acid]",10,–,–
"O=C(O)CC[C@H]1CC[C@H](NC(=O)C(c2ccc(CN3N=C(c4ccccc4)OCC3=O)cc2)C2CCCC2)CC1 (single isomer, unassigned) [Example 118, 3-{trans-4-[(cyclopcntyl{4-[(5-oxo-2-phcnyl-5,6-dihydro-4H-1,3,4-oxadiazin-4-yl)mcthyl]phcnyl}acetyl)-amino]cyclohcxyl}propanoic acid]",30,–,–
"CC(CC(F)(F)F)C(C(=O)Nc1cccc(CC2(C(=O)O)CC2)c1)c1ccc(CN2N=C(c3ccccc3)OCC2=O)cc1 (single isomer, unassigned) [Example 160, 1-{3-[(5,5,5-trifluoro-3-methyl-2-{4-[(5-oxo-2-phenyl-5,6-dihydro-4H-1,3,4-oxadiazin-4-yl)methyl]phenyl}-pentanoyl)amino]benzyl}cyclopropanecarboxylic acid]",30,3.4,35
"CC(C(C(=O)Nc1cccc(CC2(C(=O)O)CC2)c1)c1ccc(Cn2nc(C(F)(F)F)ccc2=O)cc1)C(F)(F)F (single isomer, unassigned) [Example 181, 1-(3-{[4,4,4-trifluoro-3-methyl-2-(4-{[6-oxo-3-(trifluoromethyl)pyridazin-1(6H)-yl]methyl}-phenyl)-butanoyl]amino}benzyl)cyclopropanecarboxylic acid]",0.7,1.4,69
"O=C(O)c1ccc(CNC(=O)C(c2ccc(CN3N=C(c4ccccc4)OCC3=O)cc2)C2CCCC2)cc1 (single isomer, unassigned; ent-4) [Example 38, ent-4-{[(Cyclopentyl{4-[(5-oxo-2-phenyl-5,6-dihydro-4H-1,3,4-oxadiazin-4-yl)methyl]phenyl}acetyl)amino]methyl}benzenecarboxylic acid]",30,–,–
"COCC(C)C(C(=O)Nc1cccc(CCC(=O)O)c1C)c1ccc(CN2N=C(c3ccccc3)OCC2=O)cc1 (centres unmarked) [Example 3, 3-{3-[(4-Methoxy-3-methyl-2-{4-[(5-oxo-2-phenyl-5,6-dihydro-4H-1,3,4-oxadiazin-4-yl)-methyl]phenyl}butanoyl)amino]-2-methylphenyl}propanoic acid]",300,–,–
"O=C(O)CCc1ccc(Cl)c(NC(=O)C(c2ccc(CN3N=C(c4ccccc4)OCC3=O)cc2)C2CCCC2)c1 (centres unmarked) [Example 187, 3-{4-chloro-3-[(cyclopentyl{4-[(5-oxo-2-phenyl-5,6-dihydro-4H-1,3,4-oxadiazin-4-yl)methyl]-phenyl}acetyl)amino]phenyl}propanoic acid]",1,–,–
